Values belong to the molecule of their own block, whether it stands above or below them.
Target: T1, human mAChR M4 (Homo sapiens, UniProt P08173)
T1 construct: expressed in transfected cells; host or cells: CHO-K1 (ATCC), stably expressing hM4 and Gqi5
T1 sequence (P08173 1-479): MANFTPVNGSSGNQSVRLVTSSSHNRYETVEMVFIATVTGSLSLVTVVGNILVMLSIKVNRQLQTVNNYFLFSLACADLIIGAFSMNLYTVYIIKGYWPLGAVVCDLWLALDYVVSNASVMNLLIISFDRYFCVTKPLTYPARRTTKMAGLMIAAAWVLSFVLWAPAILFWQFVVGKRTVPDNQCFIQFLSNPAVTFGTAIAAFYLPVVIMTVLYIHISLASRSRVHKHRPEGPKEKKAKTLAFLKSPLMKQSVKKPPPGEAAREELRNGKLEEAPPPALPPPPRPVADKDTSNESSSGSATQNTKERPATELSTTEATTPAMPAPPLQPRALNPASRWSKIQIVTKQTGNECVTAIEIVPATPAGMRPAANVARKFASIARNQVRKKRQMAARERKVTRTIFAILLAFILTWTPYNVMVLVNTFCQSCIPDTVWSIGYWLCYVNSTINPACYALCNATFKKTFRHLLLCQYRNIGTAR
Experiment: mAChR M4 cell-based functional assay: calcium flux (Fluo-4, FDSS), positive allosteric modulator activity on the EC20 acetylcholine response, hM4-Gqi5 CHO-K1 cells
Conditions: for Emax at 30 µM: CHO-K1, human M4, % ACh maximum at 30 μM; for EC50: human M4, PAM activity on EC20 acetylcholine response, calcium flux, read-out: Human M4 EC50
Procedure, shortened: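 CHO-K1 cells stably expressing human M4 with chimeric Gqi5, loaded with Fluo-4 AM for 50 min at 37° C. Compounds (11-point, 1:3 dilutions) added first, then an acetylcholine EC20 at 144 s; calcium read on FDSS at 1 Hz. EC50 is the half-maximal increase above the EC20 baseline, four-parameter logistic fit.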

Structure (SMILES): Clc1nc(N2CCc3ncc(N4CCOc5ncccc54)cc3C2)c2cccnc2n1 [Compound 95, 1-[6-(2-chloropyrido[2,3-d]pyrimidin-4-yl)-7,8-dihydro-5H-1,6-naphthyridin-3-yl]-2,3-dihydropyrido[2,3-b][1,4]oxazine]
Emax at 30 µM: 78% | EC50: 0.42 µM

Structure (SMILES): Cc1ccc2ncnc(N3CCc4ncc(Nc5cccnc5F)cc4C3)c2c1 [Compound 97, N-(2-fluoro-3-pyridyl)-6-(6-methylquinazolin-4-yl)-7,8-dihydro-5H-1,6-naphthyridin-3-amine]
Emax at 30 µM: 95% | EC50: 0.08 µM

Structure (SMILES): Cc1ccc2nc(C)nc(N3CCc4ncc(N5CCOc6ncccc65)cc4C3)c2c1 [Compound 99, 1-[6-(2,6-dimethylquinazolin-4-yl)-7,8-dihydro-5H-1,6-naphthyridin-3-yl]-2,3-dihydropyrido[2,3-b][1,4]oxazine]
Emax at 30 µM: 101% | EC50: 0.1 µM

Structure (SMILES): Cc1ccc2nc(C)nc(N3CCc4ncc(N5CCCn6nccc65)cc4C3)c2c1 [Compound 100, 4-[3-(6,7-dihydro-5H-pyrazolo[1,5-a]pyrimidin-4-yl)-7,8-dihydro-5H-1,6-naphthyridin-6-yl]-2,6-dimethyl-quinazoline]
Emax at 30 µM: 101% | EC50: 0.06 µM

Structure (SMILES): COc1cc2c(N3CCc4ncc(N5CCCn6nccc65)cc4C3)nc(Cl)nc2cc1F [Compound 102, 2-chloro-4-[3-(6,7-dihydro-5H-pyrazolo[1,5-a]pyrimidin-4-yl)-7,8-dihydro-5H-1,6-naphthyridin-6-yl]-7-fluoro-6-methoxy-quinazoline]
Emax at 30 µM: 78% | EC50: 0.21 µM

Structure (SMILES): CC1(C)CN(c2cnc3c(c2)CN(c2ncnc4ccc(F)cc24)CC3)CCO1 [Compound 103, 4-[6-(6-fluoroquinazolin-4-yl)-7,8-dihydro-5H-1,6-naphthyridin-3-yl]-2,2-dimethyl-morpholine]
Emax at 30 µM: 63% | EC50: 0.05 µM

Structure (SMILES): C[C@@H]1CN(c2cnc3c(c2)CN(c2ncnc4ccc(F)cc24)CC3)CCO1 [Compound 104, (2R)-4-[6-(6-fluoroquinazolin-4-yl)-7,8-dihydro-5H-1,6-naphthyridin-3-yl]-2-methyl-morpholine]
Emax at 30 µM: 63% | EC50: 0.07 µM

Structure (SMILES): Cc1nc(N2CCc3ncc(N4CCOc5ncccc54)cc3C2)c2cc(Cl)ccc2n1 [Compound 107, 1-[6-(6-chloro-2-methyl-quinazolin-4-yl)-7,8-dihydro-5H-1,6-naphthyridin-3-yl]-2,3-dihydropyrido[2,3-b][1,4]oxazine]
Emax at 30 µM: 98% | EC50: 0.14 µM

Structure (SMILES): Fc1cc2c(N3CCc4ncc(Nc5cccnc5F)cc4C3)nc(Cl)nc2cc1Cl [Compound 110, 6-(2,7-dichloro-6-fluoro-quinazolin-4-yl)-N-(2-fluoro-3-pyridyl)-7,8-dihydro-5H-1,6-naphthyridin-3-amine]
Emax at 30 µM: 76% | EC50: 3.87 µM

Structure (SMILES): Fc1ccc2nc(C(F)(F)F)nc(N3CCc4ncc(N5CCOc6ncccc65)cc4C3)c2c1 [Compound 112, 1-[6-[6-fluoro-2-(trifluoromethyl)quinazolin-4-yl]-7,8-dihydro-5H-1,6-naphthyridin-3-yl]-2,3-dihydropyrido[2,3-b][1,4]oxazine]
Emax at 30 µM: 92% | EC50: 0.38 µM

Structure (SMILES): Fc1cccc(Cc2cnc3c(c2)CN(c2ncnc4ccc(F)cc24)CC3)c1 [Compound 114, 6-fluoro-4-[3-[(3-fluorophenyl)methyl]-7,8-dihydro-5H-1,6-naphthyridin-6-yl]quinazoline]
Emax at 30 µM: 75% | EC50: 0.59 µM

Structure (SMILES): FC(F)(F)c1cnc2c(c1)CN(c1nc(Cl)nc3ncccc13)CC2 [Compound 121, 2-chloro-4-[3-(trifluoromethyl)-7,8-dihydro-5H-1,6-naphthyridin-6-yl]pyrido[2,3-d]pyrimidine]
Emax at 30 µM: 69% | EC50: 0.36 µM

Structure (SMILES): FC(F)(F)c1cnc2c(c1)CN(c1nc(Cl)nc3ccccc13)CC2 [Compound 123, 2-chloro-4-[3-(trifluoromethyl)-7,8-dihydro-5H-1,6-naphthyridin-6-yl]quinazoline]
Emax at 30 µM: 68% | EC50: 0.34 µM

Structure (SMILES): Cc1nc(N2CCc3ncc(C(F)(F)F)cc3C2)c2c(F)cccc2n1 [Compound 125, 5-fluoro-2-methyl-4-[3-(trifluoromethyl)-7,8-dihydro-5H-1,6-naphthyridin-6-yl]quinazoline]
Emax at 30 µM: 78% | EC50: 0.4 µM

Structure (SMILES): Cc1nc(N2CCc3ncc(C(F)(F)F)cc3C2)c2cccc(F)c2n1 [Compound 126, 8-fluoro-2-methyl-4-[3-(trifluoromethyl)-7,8-dihydro-5H-1,6-naphthyridin-6-yl]quinazoline]
Emax at 30 µM: 66% | EC50: 0.31 µM

Continued by falling EC50, values first:

Emax at 30 µM: 63% | EC50: 8.39 µM
Structure (SMILES): Cc1nc(N2Cc3cc(C(F)(F)F)cnc3C(C)(C)C2)c2cc(F)ccc2n1 [Compound 118, 4-[8,8-dimethyl-3-(trifluoromethyl)-5,7-dihydro-1,6-naphthyridin-6-yl]-6-fluoro-2-methyl-quinazoline]

Emax at 30 µM: 43% | EC50: 0.95 µM
Structure (SMILES): Cc1ccc2c(N3CCc4ncc(C(F)(F)F)cc4C3)nc(C)nc2c1 [Compound 124, 2,7-dimethyl-4-[3-(trifluoromethyl)-7,8-dihydro-5H-1,6-naphthyridin-6-yl]quinazoline]

Emax at 30 µM: 92% | EC50: 0.48 µM
Structure (SMILES): Cc1nc(N2CCc3ncc(N4CCCn5nccc54)cc3C2)c2cc(C(F)(F)F)ccc2n1 [Compound 101, 4-[3-(6,7-dihydro-5H-pyrazolo[1,5-a]pyrimidin-4-yl)-7,8-dihydro-5H-1,6-naphthyridin-6-yl]-2-methyl-6-(trifluoromethyl)quinazoline]

Emax at 30 µM: 80% | EC50: 0.46 µM
Structure (SMILES): Fc1cc2c(N3CCc4ncc(N5CCCn6nccc65)cc4C3)nc(Cl)nc2cc1Cl [Compound 109, 2,7-dichloro-4-[3-(6,7-dihydro-5H-pyrazolo[1,5-a]pyrimidin-4-yl)-7,8-dihydro-5H-1,6-naphthyridin-6-yl]-6-fluoro-quinazoline]

Emax at 30 µM: 63% | EC50: 0.43 µM
Structure (SMILES): Cc1nc(N2CCc3ncc(C(F)(F)F)cc3C2)c2ccc(F)cc2n1 [Compound 127, 7-fluoro-2-methyl-4-[3-(trifluoromethyl)-7,8-dihydro-5H-1,6-naphthyridin-6-yl]quinazoline]

Emax at 30 µM: 82% | EC50: 0.4 µM
Structure (SMILES): Fc1ccc2nc(C(F)(F)F)nc(N3CCc4ncc(N5CCCn6nccc65)cc4C3)c2c1 [Compound 111, 4-[3-(6,7-dihydro-5H-pyrazolo[1,5-a]pyrimidin-4-yl)-7,8-dihydro-5H-1,6-naphthyridin-6-yl]-6-fluoro-2-(trifluoromethyl)quinazoline]

Emax at 30 µM: 102% | EC50: 0.17 µM
Structure (SMILES): Cc1nc(N2CCc3ncc(Nc4ccnn4C)cc3C2)c2cc(Cl)ccc2n1 [Compound 108, 6-(6-chloro-2-methyl-quinazolin-4-yl)-N-(2-methylpyrazol-3-yl)-7,8-dihydro-5H-1,6-naphthyridin-3-amine]

Emax at 30 µM: 69% | EC50: 0.16 µM
Structure (SMILES): Fc1ccc2ncnc(N3CCc4ncc(Oc5ccccc5F)cc4C3)c2c1 [Compound 113, 6-fluoro-4-[3-(2-fluorophenoxy)-7,8-dihydro-5H-1,6-naphthyridin-6-yl]quinazoline]

Emax at 30 µM: 95% | EC50: 0.13 µM
Structure (SMILES): Cn1nccc1Nc1cnc2c(c1)CN(c1ncnc3ccc(Cl)cc13)CC2 [Compound 106, 6-(6-chloroquinazolin-4-yl)-N-(2-methylpyrazol-3-yl)-7,8-dihydro-5H-1,6-naphthyridin-3-amine]

Emax at 30 µM: 95% | EC50: 0.11 µM
Structure (SMILES): Cc1ccc2nc(Cl)nc(N3CCc4ncc(C(F)(F)F)cc4C3)c2c1 [Compound 119, 2-chloro-6-methyl-4-[3-(trifluoromethyl)-7,8-dihydro-5H-1,6-naphthyridin-6-yl]quinazoline]

Emax at 30 µM: 91% | EC50: 0.1 µM
Structure (SMILES): Fc1ccc2nc(Cl)nc(N3CCc4ncc(C(F)(F)F)cc4C3)c2c1 [Compound 120, 2-chloro-6-fluoro-4-[3-(trifluoromethyl)-7,8-dihydro-5H-1,6-naphthyridin-6-yl]quinazoline]

Emax at 30 µM: 89% | EC50: 0.09 µM
Structure (SMILES): Fc1ccc2ncnc(N3CCc4ncc(C(F)(F)F)cc4C3)c2c1 [Compound 122, 6-fluoro-4-[3-(trifluoromethyl)-7,8-dihydro-5H-1,6-naphthyridin-6-yl]quinazoline]

Emax at 30 µM: 94% | EC50: 0.08 µM
Structure (SMILES): Cc1ccc2ncnc(N3CCc4ncc(Nc5ccnn5C)cc4C3)c2c1 [Compound 96, N-(2-methylpyrazol-3-yl)-6-(6-methylquinazolin-4-yl)-7,8-dihydro-5H-1,6-naphthyridin-3-amine]

Emax at 30 µM: 91% | EC50: 0.07 µM
Structure (SMILES): Clc1ccc2ncnc(N3CCc4ncc(N5CCOc6ncccc65)cc4C3)c2c1 [Compound 105, 1-[6-(6-chloroquinazolin-4-yl)-7,8-dihydro-5H-1,6-naphthyridin-3-yl]-2,3-dihydropyrido[2,3-b][1,4]oxazine]

Emax at 30 µM: 97% | EC50: 0.03 µM
Structure (SMILES): Fc1cc2ncnc(N3CCc4ncc(N5CCOc6ncccc65)cc4C3)c2cc1F [Compound 98, 1-[6-(6,7-difluoroquinazolin-4-yl)-7,8-dihydro-5H-1,6-naphthyridin-3-yl]-2,3-dihydropyrido[2,3-b][1,4]oxazine]

Reference: US20250026752A1, “POSITIVE ALLOSTERIC MODULATORS OF THE MUSCARINIC ACETYLCHOLINE RECEPTOR M4” (Vanderbilt University, priority 2021, published 2025)
